Assay results published in US20120088753A1, “PYRROLOPYRIMIDINES AND USED AS KINASE INHIBITORS” (MEDICAL RESEARCH COUNCIL TECHNOLOGY, priority 2009, published 2012).

Molecular target: T1, TBK1 (Homo sapiens, UniProt Q9UHD2)
T1 construct: All protein kinases were of human origin and encoded full length proteins, unless indicated otherwise; His6; made in house; host or cells: insect Sf21 cells
T1 sequence (Q9UHD2 1-729): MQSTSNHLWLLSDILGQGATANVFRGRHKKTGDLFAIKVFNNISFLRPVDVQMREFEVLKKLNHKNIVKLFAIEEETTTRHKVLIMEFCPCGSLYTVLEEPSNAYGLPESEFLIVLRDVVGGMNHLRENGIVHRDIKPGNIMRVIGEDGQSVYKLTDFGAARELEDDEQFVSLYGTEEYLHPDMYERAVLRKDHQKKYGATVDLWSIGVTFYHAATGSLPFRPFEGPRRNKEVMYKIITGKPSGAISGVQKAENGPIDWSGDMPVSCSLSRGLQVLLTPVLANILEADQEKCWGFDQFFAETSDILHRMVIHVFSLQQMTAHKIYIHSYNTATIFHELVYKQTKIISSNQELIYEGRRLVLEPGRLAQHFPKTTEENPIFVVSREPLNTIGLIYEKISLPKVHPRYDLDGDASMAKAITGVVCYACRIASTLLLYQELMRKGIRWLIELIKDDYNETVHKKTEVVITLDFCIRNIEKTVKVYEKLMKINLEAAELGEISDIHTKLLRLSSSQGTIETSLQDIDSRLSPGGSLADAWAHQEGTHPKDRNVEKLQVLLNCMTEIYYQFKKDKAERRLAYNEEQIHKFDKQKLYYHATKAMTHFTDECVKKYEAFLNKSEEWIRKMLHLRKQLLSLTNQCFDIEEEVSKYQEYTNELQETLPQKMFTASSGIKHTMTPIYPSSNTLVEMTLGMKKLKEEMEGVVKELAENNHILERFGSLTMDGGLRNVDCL
Test: TBK1 protein kinase assay ([γ-33P]ATP filter-plate, IC50 from 10 concentrations)
Assay type: biochemical
Conditions: 50 μM ATP, peptide substrate 300 μM, 30 min, 21° C.; read-out: Potency score (TBK1 IC50)
Text: All protein kinases were of human origin and encoded full length proteins, unless indicated otherwise. They were either expressed as glutathione S-transferase (GST) fusion proteins in Escherichia Coli or as hexahistidine (His6)-tagged proteins in insect Sf21 cells. GST fusion proteins were purified by affinity chromatography on glutathione-Sepharose, and His6-tagged proteins on nickel/nitriloacetate-agarose. The procedures for expressing some of the protein kinases used herein have been detailed previously.^8,9 The following sections outline the DNA vectors synthesised and the procedures used to express and purifying protein kinases that have not been reported previously.
The following kinases were expressed in Sf21 cells: Aurora B and Aurora C, extra-cellular signal-regulated kinase 8 (ERK8), microtubule affinity regulating kinase 3 (MARK3), protein kinase Bα[118-480][S473D], protein kinase Bβ (PKBβ[120-481][S474D], 3-phosphoinositide-dependent protein kinase-1 [52-556] (PDK1[52-556], IKKε, TBK1,
All assays (25.5 μl) were carried out at room temperature (21° C.) and were linear with respect to time and enzyme concentration under the conditions used. Assays were performed for 30 min using Multidrop Micro reagent dispensers (Thermo Electron Corporation, Waltham, Mass. 02454, USA) in a 96-well format. The concentration of magnesium acetate in the assays was 10 mM and the [γ-33P] ATP (800 cpm/pmol) was used at 5, 20 or 50 μM as indicated, in order to be at or below the Km for ATP for each enzyme. Protein kinases assayed at 5 μM ATP were: ERK1, ERK8, PKBα, MARK3, Aurora C. Protein kinases assayed at 20 μM ATP were: JNK1, PDK1, CHK1, CHK2, CDK2 and Aurora B. Protein kinases assayed at 50 μM ATP were: MNK2, IKKepsilon and TBK1.
The assays were initiated with MgATP, stopped by addition of 5 μl of 0.5 M orthophosphoric acid and spotted on to P81 filterplates using a unifilter harvester (PerkinElmer, Boston, Mass. 02118, USA). The IC50 values of inhibitors were determined after carrying out assays at 10 different concentrations of each compound.
ERK1 and ERK8 were both assayed against myelin basic protein (MBP, 0.33 mg/ml). MARK3 was assayed against the peptide […] (300 μM), MNK2 against the eIF4E protein (0.5 mg/ml). PKBβ was assayed against the peptide GRPRTSSFAEGKK (30 μM). TBK1 were assayed against ([…]) (300 μM). The substrates used for other protein kinases were described previously.^8,9
Unless stated otherwise, enzymes were diluted in 50 mM Tris/HCl pH 7.5, 0.1 mM EGTA, 1 mg/ml BSA, 0.1% (v/v) 2-mercaptoethanol and assayed in 50 mM Tris/HCl pH 7.5, 0.1 mM EGTA, 0.1% (v/v) 2-mercaptoethanol.

Cn1ncc2cc(Nc3ncc4ccn(CCCNC(=O)C5CCC5)c4n3)ccc21 [Example 1, Cyclobutanecarboxylic acid {3-[2-(1-methyl-1H-indazol-5-ylamino)-pyrrolo[2,3-d]pyrimidin-7-yl]propyl}-amide]
IC50: < 100 nM

Cn1ncc2ccc(Nc3ncc4ccn(CCCNC(=O)C5CCC5)c4n3)cc21 [Example 2, Cyclobutanecarboxylic acid {3-[2-(1-methyl-1H-indazol-6-ylamino)-pyrrolo[2,3-d]pyrimidin-7-yl]-propyl}-amide]
IC50: < 100 nM

O=C(NCCCn1ccc2cnc(Nc3ccc(N4CCOCC4)cc3)nc21)C1CCC1 [Example 3, Cyclobutanecarboxylic acid {3-[2-(4-morpholin-4-yl-phenylamino)-pyrrolo[2,3-d]pyrimidin-7-yl]-propyl}-amide]
IC50: < 100 nM

CN1CCN(c2ccc(Nc3ncc4ccn(CCCNC(=O)C5CCC5)c4n3)cc2)CC1 [Example 4, Cyclobutanecarboxylic acid (3-{2-[4-(4-methyl-piperazin-1-yl)-phenylamino]-pyrrolo[2,3-d]pyrimidin-7-yl}-propyl)-amide]
IC50: < 100 nM

CN(C)Cc1ccc(Nc2ncc3ccn(CCCNC(=O)C4CCC4)c3n2)cc1 [Example 5, Cyclobutanecarboxylic acid {3-[2-(4-dimethylaminomethyl-phenylamino)-pyrrolo[2,3-d]pyrimidin-7-yl]-propyl}-amide]
IC50: < 100 nM

O=C(NCCCn1ccc2cnc(Nc3cccc(CN4CCCC4)c3)nc21)C1CCC1 [Example 6, Cyclobutanecarboxylic acid {3-[2-(3-pyrrolidin-1-ylmethyl-phenylamino)-pyrrolo[2,3-d]pyrimidin-7-yl]-propyl}-amide]
IC50: < 100 nM

O=C(NCCCn1ccc2cnc(Nc3cccc(-c4cnco4)c3)nc21)C1CCC1 [Example 7, Cyclobutanecarboxylic acid {3-[2-(3-oxazol-5-yl-phenylamino)-pyrrolo[2,3-d]pyrimidin-7-yl]-propyl}-amide]
IC50: < 100 nM

Cn1cc(Nc2ncc3ccn(CCCNC(=O)C4CCC4)c3n2)cn1 [Example 8, Cyclobutanecarboxylic acid {3-[2-(1-methyl-1H-pyrazol-4-ylamino)-pyrrolo[2,3-d]pyrimidin-7-yl]-propyl}-amide]
IC50: < 100 nM

O=C(NCCCn1ccc2cnc(Nc3cnn(CCN4CCOCC4)c3)nc21)C1CCC1 [Example 9, Cyclobutanecarboxylic acid (3-{2-[1-(2-morpholin-4-yl-ethyl)-1H-pyrazol-4-ylamino]-pyrrolo[2,3-d]pyrimidin-7-yl}-propyl)-amide]
IC50: 100 to 1000 nM

O=C(NCCCn1ccc2cnc(Nc3cccc(F)c3)nc21)c1cccs1 [Example 10, Thiophene-2-carboxylic acid {3-[2-(3-fluoro-phenylamino)-pyrrolo[2,3-d]pyrimidin-7-yl]-propyl}-amide]
IC50: < 100 nM

N#Cc1cccc(Nc2ncc3ccn(CCCNC(=O)c4cccs4)c3n2)c1 [Example 11, Thiophene-2-carboxylic acid {3-[2-(3-cyano-phenylamino)-pyrrolo[2,3-d]pyrimidin-7-yl]-propyl}-amide]
IC50: 100 to 1000 nM

O=C(NCCCn1ccc2cnc(Nc3cccnc3)nc21)c1cccs1 [Example 12, Thiophene-2-carboxylic acid {3-[2-(pyridin-3-ylamino)-pyrrolo[2,3-d]pyrimidin-7-yl]-propyl}-amide]
IC50: 100 to 1000 nM

O=C(NCCCn1ccc2cnc(Nc3cccc(C(F)(F)F)c3)nc21)c1cccs1 [Example 13, Thiophene-2-carboxylic acid {3-[2-(3-trifluoromethyl-phenylamino)-pyrrolo[2,3-d]pyrimidin-7-yl]-propyl}-amide]
IC50: 1000 to 10000 nM

O=C(NCCCn1ccc2cnc(Nc3cccc(NC(=O)N4CCCC4)c3)nc21)c1cccs1 [Example 14, Pyrrolidine-1-carboxylic acid [3-(7-{3-[(thiophene-2-carbonyl)-amino]-propyl}-7H-pyrrolo[2,3-d]pyrimidin-2-ylamino)-phenyl]-amide]
IC50: 100 to 1000 nM

O=C(NCCCn1ccc2cnc(Nc3ccc(C(=O)N4CCOCC4)cc3)nc21)C1CCC1 [Example 15, Cyclobutanecarboxylic acid (3-{2-[4-(morpholine-4-carbonyl)-phenylamino]-pyrrolo[2,3-d]pyrimidin-7-yl}-propyl)-amide]
IC50: < 100 nM

O=C(NCCCn1ccc2cnc(Nc3ccc(N4CCOCC4)nc3)nc21)C1CCCC1 [Example 16, Cyclopentanecarboxylic acid {3-[2-(6-morpholin-4-yl-pyridin-3-ylamino)-pyrrolo[2,3-d]pyrimidin-7-yl]-propyl}-amide]
IC50: < 100 nM

O=C(NCCCn1ccc2cnc(Nc3ccc(N4CCOCC4)nc3)nc21)c1cnccn1 [Example 17, Pyrazine-2-carboxylic acid {3-[2-(6-morpholin-4-yl-pyridin-3-ylamino)-pyrrolo[2,3-d]pyrimidin-7-yl]-propyl}-amide]
IC50: 100 to 1000 nM

O=C(CC1CC1)NCCCn1ccc2cnc(Nc3ccc(N4CCOCC4)nc3)nc21 [Example 18, 2-Cyclopropyl-N-{3-[2-(6-morpholin-4-yl-pyridin-3-ylamino)-pyrrolo[2,3-d]pyrimidin-7-yl]-propyl}-acetamide]
IC50: 100 to 1000 nM

CC(C)CC(=O)NCCCn1ccc2cnc(Nc3ccc(N4CCOCC4)nc3)nc21 [Example 19, 3-Methyl-N-{3-[2-(6-morpholin-4-yl-pyridin-3-ylamino)-pyrrolo[2,3-d]pyrimidin-7-yl]-propyl}-butyramide]
IC50: 100 to 1000 nM

O=C(NCCCn1ccc2cnc(Nc3ccc(N4CCOCC4)nc3)nc21)C1CCOC1 (stereo not shown) [Example 20, Tetrahydro-furan-3-carboxylic acid {3-[2-(6-morpholin-4-yl-pyridin-3-ylamino)-pyrrolo[2,3-d]pyrimidin-7-yl]-propyl}-amide]
IC50: < 100 nM

O=C(NCCCn1ccc2cnc(Nc3ccc(N4CCOCC4)nc3)nc21)c1cncs1 [Example 21, Thiazole-5-carboxylic acid {3-[2-(6-morpholin-4-yl-pyridin-3-ylamino)-pyrrolo[2,3-d]pyrimidin-7-yl]-propyl}-amide]
IC50: 100 to 1000 nM

O=C(NCCCn1ccc2cnc(Nc3ccc(N4CCOCC4)nc3)nc21)C1CC1 [Example 22, Cyclopropanecarboxylic acid {3-[2-(6-morpholin-4-yl-pyridin-3-ylamino)-pyrrolo[2,3-d]pyrimidin-7-yl]-propyl}-amide]
IC50: 100 to 1000 nM

CC(C)C(=O)NCCCn1ccc2cnc(Nc3ccc(N4CCOCC4)nc3)nc21 [Example 23, N-{3-[2-(6-Morpholin-4-yl-pyridin-3-ylamino)-pyrrolo[2,3-d]pyrimidin-7-yl]-propyl}-isobutyramide]
IC50: 1000 to 10000 nM

O=C(NCCCn1ccc2cnc(Nc3ccc(N4CCOCC4)nc3)nc21)C1CCCCC1 [Example 24, Cyclohexanecarboxylic acid {3-[2-(6-morpholin-4-yl-pyridin-3-ylamino)-pyrrolo[2,3-d]pyrimidin-7-yl]-propyl}-amide]
IC50: 100 to 1000 nM

O=C(CC1CCCC1)NCCCn1ccc2cnc(Nc3ccc(N4CCOCC4)nc3)nc21 [Example 25, 2-Cyclopentyl-N-{3-[2-(6-morpholin-4-yl-pyridin-3-ylamino)-pyrrolo[2,3-d]pyrimidin-7-yl]-propyl}-acetamide]
IC50: 100 to 1000 nM
